# Legend:
# [1] = system: HIV-1; details: monotherapy in naïve patients (Louie et al.); cited from earlier work
# [2] = system: HIV-1Ba-L
# Description: The anti-HIV-1 activity of CMX157 is evaluated in two-drug combination studies with twenty-four different FDA-approved anti-HIV inhibitors. Each two-drug combination is tested three times in CEM T-lymphocytic cells or MAGI-CCR5 cells acutely infected with the laboratory-adapted strain HIV-1IIIB or HIV-1Ba-L, respectively. Viral growth/inhibition is evaluated by measuring virus-induced cytopathic effects (CPE) in CEM cells or by β-galactosidase reporter gene induction in MAGI-CCR5 cells at the experimental endpoint. The cytotoxicity of each two-drug combination is also evaluated in parallel with the antiviral evaluations. The concentrations of CMX157 used in these evaluations are selected in order to test a broad range of concentrations and to provide as complete a dose response curve as possible under the limitations of eight total concentrations. […] The “positive antagonism control” of d4T (stavudine) in combination with RBV was tested in parallel with each of the assays that were performed. Analysis of drug interactions for each of the two-drug combinations is performed using the Prichard and Shipman MacSynergy II three-dimensional model for statistical evaluation of combination assays.
# [3] = system: HIV; assay: microbe, parasite or virus in culture; format: cell-based
# [4] = system: HIV-1IIIB; assay: Two-drug combination antiviral assay in CEM cells (CPE), MacSynergy II; format: cell-based; details: in combination with CMX157, CEM-SS cells, 95% confidence
# [5] = in combination with CMX157, MAGI-CCR5 cells, 95% confidence
compound,measurement,setting,value
"CC(C)OC(=O)OCOP(=O)(CO[C@H](C)Cn1cnc2c(N)ncnc21)OCOC(=O)OC(C)C.O=C(O)/C=C/C(=O)O [TDF, 2,4,6,8-Tetraoxa-5-phosphanonanedioic acid, 5-[[(1R)-2-(6-amino-9H-purin-9-yl)-1-methylethoxy]methyl]-, bis(1-methylethyl) ester, 5-oxide, (2E)-2-butenedioate (1:1)]",viral load response,[1],−1.5 log
maraviroc [Maraviroc (MVC)],"Antagonism Volume, Result 1",[2]; [5],"−3.82 nM^2 %, μM^2 % or nMμM %"
same,"Antagonism Volume, Result 2",[2]; [5],"−3.12 nM^2 %, μM^2 % or nMμM %"
same,"Antagonism Volume, Result 3",[2]; [5],"0 nM^2 %, μM^2 % or nMμM %"
same,Mean Antagonism Volume (n = 3),[2]; [5],"−2.31 nM^2 %, μM^2 % or nMμM %"
same,Mean Synergy Volume (n = 3),[2]; [5],"85.3 nM^2 %, μM^2 % or nMμM %"
same,"Synergy Volume, Result 1",[2]; [5],"145 nM^2 %, μM^2 % or nMμM %"
same,"Synergy Volume, Result 2",[2]; [5],"14.1 nM^2 %, μM^2 % or nMμM %"
same,"Synergy Volume, Result 3",[2]; [5],"96.6 nM^2 %, μM^2 % or nMμM %"
same,Interpretation of Antiviral Results (MacSynergy),"[2]; two-drug combination (with CMX157; control d4T/RBV), MAGI-CCR5 cells",slightly synergistic
"Nc1nc(NC2CC2)c2ncn([C@H]3C=C[C@@H](CO)C3)c2n1 [ABC, abacavir]",IC50,"[3]; Human immunodeficiency virus 1, PANEL 1, WT",1.52 µM
same,IC50,"[3]; Human immunodeficiency virus 1, PANEL 2, WT",1.67 µM
same,IC50,"[3]; Human immunodeficiency virus 1, PANEL 3, 6 TAMs, no 184",7.87 µM
same,IC50,"[3]; Human immunodeficiency virus 1, PANEL 6, 6 TAMs + 184",14 µM
same,IC50,"[3]; Human immunodeficiency virus 1, PANEL 7, 184V",4.78 µM
same,IC50,"[3]; Human immunodeficiency virus 1, PANEL 9, 69ins, no 184",32.6 µM
same,IC50,"[3]; Human immunodeficiency virus 1, PANEL 12, 69ins + 184",46.5 µM
same,IC50,"[3]; Human immunodeficiency virus 1, PANEL 14, 65R, no 184",5.69 µM
same,IC50,"[3]; Human immunodeficiency virus 1, PANEL 15, 65R + 184V",11.8 µM
same,IC50,"[3]; Human immunodeficiency virus 1, PANEL 17, L74V",3.36 µM
same,IC50,"[3]; Human immunodeficiency virus 1, PANEL 19, L74V + M184V",9.24 µM
same,IC50,"[3]; Human immunodeficiency virus 1, PANEL 26, 151M, no 184",34.3 µM
same,IC50,"[3]; Human immunodeficiency virus 1, PANEL 28, 151M + 184",> 52 µM
same,IC50,"[3]; Human immunodeficiency virus 1, PANEL 29, L74V − SDM",3.29 µM
same,IC50,"[3]; Human immunodeficiency virus 1, PANEL 30, M184V − SDM",4.68 µM
same,IC50,"[3]; Human immunodeficiency virus 1, PANEL 31, K65R − SDM",4.56 µM
same,IC50,"[3]; Human immunodeficiency virus 1, PANEL 33, T215Y",3.67 µM
same,IC50,"[3]; Human immunodeficiency virus 1, PANEL 34, T215Y + M184V",7.61 µM
same,IC50,"[3]; Human immunodeficiency virus 1, PANEL 35, M41L + T215Y",3.36 µM
same,IC50,"[3]; Human immunodeficiency virus 1, PANEL 37, M41L + T215Y + M184V",9.6 µM
same,IC50,"[3]; Human immunodeficiency virus 1, PANEL 38, M41L + L210W + T215Y",4.97 µM
same,IC50,"[3]; Human immunodeficiency virus 1, PANEL 39, M41L + L210W + T215Y",4.19 µM
same,IC50,"[3]; Human immunodeficiency virus 1, PANEL 40, M41L + L210W + T215Y + M184V",8.17 µM
same,IC50,"[3]; Human immunodeficiency virus 1, PANEL 41, M41L + L210W + T215Y + M184V",8.92 µM
same,IC50,"[3]; Human immunodeficiency virus 1, PANEL 42, D67N + K70R",2.48 µM
same,IC50,"[3]; Human immunodeficiency virus 1, PANEL 44, D67N + K70R + T215F + K219E + M184V",7.73 µM
same,IC50,"[3]; Human immunodeficiency virus 1, PANEL 45, L210W + T215Y",3.64 µM
same,IC50,"[3]; Human immunodeficiency virus 1, PANEL 46, D67N + K70E",2.42 µM
same,IC50,"[3]; Human immunodeficiency virus 1, PANEL 47, D67N + K70E + M184V",5.05 µM
same,IC50,"[3]; Human immunodeficiency virus 1, PANEL 48, K70E + M184V",10.4 µM
same,IC50 Fold Change,"[3]; PANEL 1, WT",0.86
same,IC50 Fold Change,"[3]; PANEL 2, WT",0.94
same,IC50 Fold Change,"[3]; PANEL 3, 6 TAMs, no 184",4.43
same,IC50 Fold Change,"[3]; PANEL 6, 6 TAMs + 184",7.91
same,IC50 Fold Change,"[3]; PANEL 7, 184V",2.69
same,IC50 Fold Change,"[3]; PANEL 9, 69ins, no 184",18.00
same,IC50 Fold Change,"[3]; PANEL 12, 69ins + 184",26.00
same,IC50 Fold Change,"[3]; PANEL 14, 65R, no 184",3.20
same,IC50 Fold Change,"[3]; PANEL 15, 65R + 184V",6.64
same,IC50 Fold Change,"[3]; PANEL 17, L74V",1.89
same,IC50 Fold Change,"[3]; PANEL 19, L74V + M184V",5.21
same,IC50 Fold Change,"[3]; PANEL 26, 151M, no 184",19.00
same,IC50 Fold Change,"[3]; PANEL 28, 151M + 184",>29.2959
same,IC50 Fold Change,"[3]; PANEL 29, L74V − SDM",1.85
same,IC50 Fold Change,"[3]; PANEL 30, M184V − SDM",2.64
same,IC50 Fold Change,"[3]; PANEL 31, K65R − SDM",2.57
same,IC50 Fold Change,"[3]; PANEL 33, T215Y",2.06
same,IC50 Fold Change,"[3]; PANEL 34, T215Y + M184V",4.29
same,IC50 Fold Change,"[3]; PANEL 35, M41L + T215Y",1.89
same,IC50 Fold Change,"[3]; PANEL 37, M41L + T215Y + M184V",5.41
same,IC50 Fold Change,"[3]; PANEL 38, M41L + L210W + T215Y",2.80
same,IC50 Fold Change,"[3]; PANEL 39, M41L + L210W + T215Y",2.36
same,IC50 Fold Change,"[3]; PANEL 40, M41L + L210W + T215Y + M184V",4.60
same,IC50 Fold Change,"[3]; PANEL 41, M41L + L210W + T215Y + M184V",5.02
same,IC50 Fold Change,"[3]; PANEL 42, D67N + K70R",1.40
same,IC50 Fold Change,"[3]; PANEL 44, D67N + K70R + T215F + K219E + M184V",4.36
same,IC50 Fold Change,"[3]; PANEL 45, L210W + T215Y",2.05
same,IC50 Fold Change,"[3]; PANEL 46, D67N + K70E",1.36
same,IC50 Fold Change,"[3]; PANEL 47, D67N + K70E + M184V",2.85
same,IC50 Fold Change,"[3]; PANEL 48, K70E + M184V",5.88
same,"Antagonism Volume, Result 1",[4],"−35.8 nM^2 %, μM^2 % or nMμM %"
same,"Antagonism Volume, Result 2",[4],"−2.32 nM^2 %, μM^2 % or nMμM %"
same,"Antagonism Volume, Result 3",[4],"−12.1 nM^2 %, μM^2 % or nMμM %"
same,Mean Antagonism Volume (n = 3),[4],"−16.7 nM^2 %, μM^2 % or nMμM %"
same,Mean Synergy Volume (n = 3),[4],"14.9 nM^2 %, μM^2 % or nMμM %"
same,"Synergy Volume, Result 1",[4],"25.1 nM^2 %, μM^2 % or nMμM %"
same,"Synergy Volume, Result 2",[4],"0 nM^2 %, μM^2 % or nMμM %"
same,"Synergy Volume, Result 3",[4],"19.7 nM^2 %, μM^2 % or nMμM %"

# Source: patent US8993542B2, “Methods of treating viral infections” (priority 2008, dated 2015)
